Measured values reported in patent publication US12130282B2, “Universal fluorescence assay of high affinity ligand transport” (priority 2018, dated 2024).
Where “and” joins values, the source holds several entries; their conditions need not be identical. Identical values can stand only once. Like-named read-outs stand apart in the source and are kept apart here.

What was measured:
[1] = test system: chromosomally expressed FepA in E. coli; conditions: cited from earlier work
[2] = test system: K. pneumoniae Kp52.145; test: FD sensor assay of FeEnt uptake rate by test strain (sensor OKN13/pEcoFepA-FM); format: cell-based
Method: FIG. 7. Uptake rates from FD assays. At t=60 s we added varying concentrations of FeEnt [(0.5 nM (green); 1 nM (yellow); 5 nM (orange); 10 nM (red)] to sensor strain OKN13/pEcoFepA-FM in the presence of test strain K. pneumoniae isolate Kp52.145. 10 nM FeEnt gave maximal quenching. For 1 and 5 nM FeEnt, at half-saturation (blue dashed line) we determined the slope of the time course (black dashed line) and the elapsed time (dashed red line). Either parameter estimated the transport rate of the test strain (see text).
Transport rates from spectroscopic analyses. The rate of fluorescence recovery in the spectroscopic system correlates to the rate of ligand depletion by bacterial transport, and comparisons of test strains in universal FD uptake assays reiterated this point. The various ESKAPE bacteria conferred fluorescence recovery at different rates (FIG. 3B). FeEnt binding at 100 s quenched the fluorescence of the FD sensor strain, E. coli OKN13/pEcoFepA-FM. […] But, the fluorescence of the E. coli strain reflected FeEnt uptake by other bacteria in the same solution: as they decreased [FeEnt] by cellular transport the intensity of OKN13/pEcoFepA-FM returned to initial levels (as described in FIG. 1B). The assay monitored FeEnt uptake by E. coli expressing chromosomal (Eco; cyan) or plasmid-mediated (Eco/pfepA+; blue) FepA, and ESKAPE species K. pneumoniae (Kpn; red), A. baumannii (Aba; gold), P. aeruginosa (Pae; green), E. cloacae (Ecl; magenta). […]
Species-specific fluorescence assay of FeEnt uptake: KpnFepA-FM. […] For species-specific ferric siderophore transport assays of Gram (−) bacteria we added an iron complex to 2×10^7 labeled cells in a quartz cuvette (final volume, 2 mL) with stirring at 37° C., and monitored the time course of fluorescence emissions at 520 nm. […] After addition of the ferric siderophore, we monitored the time-course of fluorescence emissions at 520 nm for 15-30 minutes, with stirring. […]

[3] = molecular target: T1, EcoFepA (Escherichia coli, UniProt P05825); conditions: read-out: Kd, previous determinations; cited from earlier work
T1 construct: expressed in transfected cells; host or cells: E. coli OKN3 (ΔfepA), plasmid pITS23 (pHSG575, ecofepA+)
T1 sequence (P05825 23-746): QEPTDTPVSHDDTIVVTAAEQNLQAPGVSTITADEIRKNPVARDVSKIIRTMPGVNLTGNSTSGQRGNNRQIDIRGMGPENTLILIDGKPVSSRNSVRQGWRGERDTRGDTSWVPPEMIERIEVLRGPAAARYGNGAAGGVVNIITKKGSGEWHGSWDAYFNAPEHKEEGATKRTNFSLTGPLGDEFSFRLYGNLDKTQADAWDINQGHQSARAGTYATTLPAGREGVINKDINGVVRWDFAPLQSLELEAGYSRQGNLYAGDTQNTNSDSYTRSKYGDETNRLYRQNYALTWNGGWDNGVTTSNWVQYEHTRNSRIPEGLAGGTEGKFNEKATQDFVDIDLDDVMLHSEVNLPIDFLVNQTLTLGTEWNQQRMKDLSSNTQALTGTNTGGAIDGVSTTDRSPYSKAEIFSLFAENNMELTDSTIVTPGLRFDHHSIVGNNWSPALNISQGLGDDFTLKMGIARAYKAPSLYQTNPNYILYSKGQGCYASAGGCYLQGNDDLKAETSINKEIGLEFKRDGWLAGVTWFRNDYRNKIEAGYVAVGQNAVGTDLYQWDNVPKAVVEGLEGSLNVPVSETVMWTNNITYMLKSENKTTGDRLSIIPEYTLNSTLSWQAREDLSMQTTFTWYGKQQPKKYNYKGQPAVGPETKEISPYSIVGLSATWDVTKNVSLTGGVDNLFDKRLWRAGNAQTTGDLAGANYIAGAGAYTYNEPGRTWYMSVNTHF

[4] = molecular target: T2, EcoFepA-FM (Escherichia coli, UniProt P05825, A720C); test: Fluorescence quenching binding of ferric catecholates to E. coli OKN13/pEcoFepA-FM; conditions: summary of Table 2 for both KpnFepA-FM and EcoFepA-FM fluorescent sensors
T2 construct: expressed in transfected cells; host or cells: E. coli OKN13 (ΔtonB, ΔfepA), low-copy plasmid pHSG575 derivative
T2 sequence (P05825 23-746 A720C): as the sequence (P05825 23-746) above, with A698C counted along it
From the text: (§1) Affinity determinations by spectroscopic analyses The analytical capabilities of the fluorescence spectroscopic determinations stood out when we compared the recognition of FeEnt and its glucosylated form, FeGEnt (also known as ferric salmochelin), by EcoFepA and KpnFepA. The ability of Gram (−) pathogens, including K. pneumoniae, to glucosylate enterobactin and transport FeGEnt enhances their invasiveness, in part because glucosylation impairs recognition of the iron complex by lipocalins. Additionally, whereas E. coli K12 contains a single chromosomal fepA locus that encodes its FeEnt transporter, pathogenic K. pneumoniae contain at least three fepA orthologs (chromosomal loci 1658, 4984; plasmid PII locus 0027). IroN of Salmonella typhimurium has a role in FeGEnt uptake; its closest ortholog in K. pneumoniae is plasmid-mediated fepA0027. […]
(§2) Fluorescence modifications of Cys-mutant proteins. […]
(§3) Fluorescence spectroscopy. We observed fluorophore-labeled cells in an SLM AMINCO 8100 fluorescence spectrometer, upgraded with an OLIS operating system and software (OLIS SpectralWorks, OLIS Inc., Bogart, GA), to control its shutters, polarizers and data collection. We also utilized an OLIS Clarity fluorescence spectrometer for fluorescence assays of ferric catecholate binding.

[5] = test system: KpnFepA-FM (KpnFepA0027_T210C); test: Fluorescence quenching binding of ferric catecholates to E. coli OKN13/pKpnFepA-FM; design: species or system K. pneumoniae; conditions: adsorption to KpnFepA
From the text: as §1, §2, §3

[6] = molecular target: LmoHbp2; conditions: read-out: Kd, isocalorimetric; cited from earlier work
[7] = molecular target: LmoHbp2_S154C-CPM; test: Hemin titration of purified LmoHbp2-CPM, fluorescence quenching; format: binding, Listeria monocytogenes; conditions: purified LmoHbp2-CPM 30 nM, 1-255 nM hemin, triplicate
Method: We substituted Cys for residue S154 in NEAT1 of LmoHbp2, expressed and purified the binding protein, and covalently modified it with coumarin maleimide (CPM). Introduction of Cys in NEAT-1 of LmoHbp2 allowed its modification by extrinsic fluorophores, transforming the purified binding protein into a sensitive sensor whose emissions inversely related to [Hn]. […] The experiment was performed in triplicate; the mean values, with standard deviations, are shown. […] When we mixed Hbp2-CPM with heterologous bacteria in solution, it reflected their hemin uptake. Addition of hemin at 300 s quenched LmoHbp2-CPM emissions, but fluorescence rebounded as bacteria {L. monocytogenes (Lmo; blue), B. subtilis (Bsu; gold), S. aureus (Sau; red), V. cholerae (Vch; green)} transported the porphyrin and depleted it from solution. […]
For fluorescence spectroscopic determinations of Gram (+) bacterial heme acquisition we used the FD sensor LmoHbp2_S154C-CPM. […] For measurements of Hn uptake by heterologous bacteria we suspended the LmoHbp2_S154C-CPM sensor protein at 30 nM in PBS+0.2% glucose in a 2 mL cuvette, added Hn to 15 nM after 300 s, and then added iron-starved bacterial cells at 600 s, to a final concentration of 5×10^7/mL, and monitored fluorescence for 2 h.

[8] = molecular target: LmoHbp2; conditions: read-out: Kd, radioisotopic; cited from earlier work

Row | Compound | Vmax [1] | time required to deplete 5 nM FeEnt to 0.38 nM (half-saturation) ([2]; 10^7 cells/mL K. pneumoniae Kp52.145) | mean uptake rate over the first 520 s ([2]; 10^7 cells/mL K. pneumoniae Kp52.145, 5 nM FeEnt) | Vmax ([2]; K. pneumoniae Kp52.145, mean rate ÷ 0.8) | Kd [3] | Kd [4] | fold lower affinity than FeEnt [5] | Kd [6] | Kd [7] | Kd [8]
1 | O=C(N[C@H]1COC(=O)[C@@H](NC(=O)c2cccc([O-])c2[O-])COC(=O)[C@@H](NC(=O)c2cccc([O-])c2[O-])COC1=O)c1cccc([O-])c1[O-].[Fe+3] [FeEnt, ferric enterobactin] | 50-100 pMol/min/10^9 cells | 520 s | 53 pMol/10^9 cells/min | ≈ 66 pMol/10^9 cells/min | 0.2 to 0.5 nM | ~0.38 nM and 0.4 nM | – | – | – | –
2 | O=C(N[C@H]1COC(=O)[C@@H](NC(=O)c2cc([C@@H]3O[C@H](CO)[C@@H](O)[C@H](O)[C@H]3O)cc(O)c2O)COC(=O)[C@@H](NC(=O)c2cc([C@@H]3O[C@H](CO)[C@@H](O)[C@H](O)[C@H]3O)cc(O)c2O)COC1=O)c1cccc(O)c1O.[Fe+3] [FeGEnt, ferric salmochelin] | – | – | – | – | – | 6 to 280 nM | 20 fold | – | – | –
3 | hemin | – | – | – | – | – | – | – | 25 to 48 nM | 12 ± 3.1 nM | 12 nM
